Molecules are shown by their SMILES.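 96-well plates; 48 h exposure; 5 concentrations. Endpoints by linear interpolation between flanking doses. Not reached: highest tested concentration assigned. The concentration for full growth arrest is given as TGI.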

Consider 13 compounds from PubChem BioAssay (NCI).

Some test systems named below: MDA-N; NCI-H522 lung; NCI-H226 lung; NCI/ADR-RES ovarian; RXF 393 renal; OVCAR-5 ovarian; OVCAR-3 ovarian; MCF7 breast; DU-145 prostate; HOP-92 NSCLC.
What all share (experiment): growth of human tumour cells (NCI), 48 h

As for `CCNC(=S)N/N=C(/C)c1cccc(/C(C)=N\NC(=S)NCC)n1`, the TGI was above 45.8 µM in the test with MDA-N; 24.5 µM with NCI-H522 lung; 7.39 µM in the test with NCI-H226 lung; 21.1 µM in the test on NCI/ADR-RES ovarian; 33.5 µM in the test on RXF 393 renal; above 72.8 µM with OVCAR-5 ovarian. For the same compound, the TGI was above 94 µM in the test with OVCAR-3 ovarian, 31.2 µM with MCF7 breast, above 36.6 µM in the test with DU-145 prostate and 24.6 µM in the test on HOP-92 NSCLC.

`CC(C)OC(=O)C(NC(=O)C(CC(=O)OCc1ccccc1)NC(=O)OCc1ccccc1)NC(=O)C1C(C)(C)CCC1(C)C` (stereo not given): the TGI is 24.2 µM with MDA-N; 24.1 µM with NCI-H522 lung; 22.8 µM with NCI-H226 lung; 21.2 µM in the test with NCI/ADR-RES ovarian; 12.7 µM in the test with RXF 393 renal; above 55.6 µM with OVCAR-5 ovarian. Moreover, the TGI was 8.01 µM in the test with OVCAR-3 ovarian, 28.4 µM in the test with MCF7 breast, above 52.4 µM with DU-145 prostate and 24.1 µM in the test on HOP-92 NSCLC.

Regarding `CC1(C)CCC[C@@]2(C)C1CC[C@@]1(CO)O[C@H](C3=CC(=O)OC3O)C[C@H]12` (stereo not given in full), the TGI in the test on MDA-N turned out to be 25.8 µM; in the test with NCI-H522 lung, 17.4 µM; with NCI-H226 lung, 35.4 µM; in the test with NCI/ADR-RES ovarian it was 36.7 µM; in the test with RXF 393 renal, 23.7 µM; in the test with OVCAR-5 ovarian, 37.5 µM. The TGI in the test on OVCAR-3 ovarian is 29.4 µM; in the test on MCF7 breast it was 26.7 µM; in the test on DU-145 prostate, 17.8 µM; in the test on HOP-92 NSCLC, 38.2 µM.

As to `O=C(O)[C@H]1NC[C@H]2C(Br)=NO[C@@H]12`, the TGI in the test with MDA-N, in the test with NCI-H522 lung, in the test on NCI-H226 lung, with NCI/ADR-RES ovarian, with RXF 393 renal and in the test with OVCAR-5 ovarian was above 100 µM throughout. The TGI with OVCAR-3 ovarian, in the test on MCF7 breast, with DU-145 prostate and in the test on HOP-92 NSCLC was above 100 µM in each case.

Regarding `O=C(/C=C/c1ccccc1)c1cc(CN2CCOCC2)c(O)c(CN2CCOCC2)c1`, the TGI with MDA-N is 39 µM; with NCI-H522 lung, above 100 µM; in the test on NCI-H226 lung, 64.9 µM; with NCI/ADR-RES ovarian, above 100 µM; with RXF 393 renal it was 35.8 µM; in the test on OVCAR-5 ovarian, 36.2 µM. In addition, the TGI with OVCAR-3 ovarian was determined as 29.4 µM; in the test with MCF7 breast, 32.4 µM; in the test on DU-145 prostate, 29.8 µM; in the test with HOP-92 NSCLC, 26.9 µM.

`CC1=NC(=N)N=C(C)C1N=Nc1ccc2nc(C)[nH]c2c1` (stereo not given): the TGI in the test with MDA-N, in the test on NCI-H522 lung, with NCI-H226 lung, in the test on NCI/ADR-RES ovarian, in the test with RXF 393 renal and in the test with OVCAR-5 ovarian was above 100 µM throughout. Further, the TGI in the test with OVCAR-3 ovarian, with MCF7 breast, in the test on DU-145 prostate and in the test on HOP-92 NSCLC was above 100 µM in each case.

For the compound `C[C@H]1CCC/C=C/[C@@H]2C[C@H](OC3OC(CO)C(O)C(O)C3O)C[C@H]2[C@H](O)/C=C/C(=O)O1` (stereo not given in full), the TGI with MDA-N was above 100 µM; in the test on NCI-H522 lung, above 100 µM; in the test with NCI-H226 lung it was above 100 µM; in the test on NCI/ADR-RES ovarian it was above 100 µM; in the test with RXF 393 renal, 87.3 µM; with OVCAR-5 ovarian it was above 100 µM. For the same compound, the TGI in the test on OVCAR-3 ovarian, with MCF7 breast, in the test on DU-145 prostate and in the test on HOP-92 NSCLC was above 100 µM in each case.

As to `O=c1[nH]c2c(Nc3c4ccccc4nc4ccccc34)c([N+](=O)[O-])c(Nc3c4ccccc4nc4ccccc34)c([N+](=O)[O-])c2[nH]1`, the TGI in the test with MDA-N turned out to be 8.49 µM; in the test with NCI-H522 lung it was 2.82 µM; with NCI-H226 lung, 6.3 µM; in the test on NCI/ADR-RES ovarian it was 2.24 µM; with RXF 393 renal, 7.19 µM; with OVCAR-5 ovarian, 5.02 µM. Also, the TGI in the test on OVCAR-3 ovarian was 6.87 µM; in the test on MCF7 breast, 10.2 µM; in the test with DU-145 prostate, 11.5 µM; in the test on HOP-92 NSCLC it was 4.74 µM.

As to `CC1(C)C(=O)/C(=C/c2ccccc2)C(C)(C)C1(C)C`, the TGI in the test on MDA-N, in the test with NCI-H522 lung, in the test with NCI-H226 lung, with NCI/ADR-RES ovarian, in the test with RXF 393 renal and in the test on OVCAR-5 ovarian was above 100 µM in each case. In addition, the TGI was above 83.2 µM in the test with OVCAR-3 ovarian, above 100 µM in the test with MCF7 breast, above 100 µM with DU-145 prostate and above 100 µM in the test on HOP-92 NSCLC.

`O=c1c2ccc(Cl)cc2oc2c(CSc3ccccc3)cccc12`: the TGI was above 100 µM in the test on MDA-N; above 53.1 µM with NCI-H522 lung; above 100 µM in the test with NCI-H226 lung; above 100 µM in the test on NCI/ADR-RES ovarian; above 100 µM in the test with RXF 393 renal; above 100 µM in the test with OVCAR-5 ovarian. Besides, the TGI in the test on OVCAR-3 ovarian is above 100 µM; with MCF7 breast, above 100 µM; with DU-145 prostate, above 100 µM; with HOP-92 NSCLC, above 74.9 µM.

Take `CCc1c(O)nc(Nc2nc3ccccc3[nH]2)[nH]c1=O`: the TGI in the test on MDA-N, in the test on NCI-H522 lung, in the test on NCI-H226 lung, in the test on NCI/ADR-RES ovarian, in the test on RXF 393 renal and with OVCAR-5 ovarian was above 100 µM each time. The TGI in the test with OVCAR-3 ovarian, in the test on MCF7 breast, in the test on DU-145 prostate and with HOP-92 NSCLC was above 100 µM throughout.

As for `COC(=O)CCC(C)[C@H]1CCC2C3CC[C@@H]4CC5(CC[C@]4(C)C3C[C@H](OC(C)=O)[C@@]21C)OOC1(CCCCC1)OO5` (stereo not given in full), the TGI in the test on MDA-N is 35 µM; with NCI-H522 lung, 40.5 µM; in the test with NCI-H226 lung it was above 100 µM; in the test on NCI/ADR-RES ovarian it was above 100 µM; in the test with RXF 393 renal, above 100 µM; in the test on OVCAR-5 ovarian, above 100 µM. The TGI is above 100 µM with OVCAR-3 ovarian, above 100 µM with MCF7 breast, 43.1 µM in the test with DU-145 prostate and above 100 µM with HOP-92 NSCLC.

On to `CC(C)Oc1cccc(N2C(CCc3c[nH]c4ccc(Br)cc34)=NS(=O)(=O)c3cnccc32)c1`, for which the TGI in the test on MDA-N is above 100 µM; in the test with NCI-H522 lung, above 100 µM; with NCI-H226 lung, 97.8 µM; in the test with NCI/ADR-RES ovarian, above 100 µM; in the test with RXF 393 renal, above 100 µM; in the test on OVCAR-5 ovarian, above 100 µM. For the same compound, the TGI with OVCAR-3 ovarian, in the test with MCF7 breast, in the test with DU-145 prostate and in the test on HOP-92 NSCLC was above 100 µM throughout.
